Reference: US12053465B2, “KCC2 expression enhancing compounds and uses thereof” (Whitehead Institute for Biomedical Research, priority 2017, dated 2024)
“Also recorded” adds a separate entry of the source.

Assays:
[1] = system: mouse models of autism and depression; conditions: intraperitoneal (IP) injection; previous work (59, 60); cited from earlier work
[2] = system: Mecp2 mutant mice; experiment: Plethysmograph breathing measurement in Mecp2 mutant mouse model of RTT; format: in vivo; conditions: male Mecp2 mutant mice; daily injection, two weeks; vs DMSO- or EtOH-injected control
Description: (§1) We assessed the in vivo efficacy of KEECs by treating RTT disease-related symptoms such as breathing pauses and reduced locomotion (58) in a Mecp2 mutant mouse model of RTT. […] Plethysmograph and locomotion measurements were made in 4-6 week-old male Mecp2 mutant animals as a pre-treatment control time point and were then injected daily with KEECs KW-2449 or Piperine. Injection of the solvent DMSO or ethanol (EtOH) served as vehicle controls (FIG. 15A). The same two behavioral measurements in vehicle or KEEC-injected Mecp2 mutant animals were performed again two weeks after the start of daily injections. Each animal's ‘after injection’ data were compared to the ‘before injection’ level to assess behavioral changes.
Male Mecp2 mutant mice (Mecp2^−/y, e.g. the Bird model) between 4-12 weeks of age were used for the in vivo experiments. Subjects were divided into drug treated KO (Piperine/KW-2449), and vehicle treated KO (EtOH/DMSO) groups. Animals were randomly assigned to treatment arms with approximately equivalent numbers in each group. […]
A full body plethysmograph chamber (EMKA Inc, PA) was used to measure breathing patterns. […] For each test, the subject was left in the chamber for 20 minutes, afterwards its breath pattern was recorded for the next 20 minutes, and the estimated amplitude modulation index (eAMI) was calculated from the breath trace to label breath pauses automatically. […]

[3] = system: Mecp2 mutant mice; experiment: Locomotion (infrared beam break) in Mecp2 mutant mouse model of RTT; format: in vivo
Description: as §1
Male Mecp2 mutant mice (Mecp2^−/y, e.g. the Bird model) between 4-12 weeks of age were used for the in vivo experiments. Subjects were divided into drug treated KO (Piperine/KW-2449), and vehicle treated KO (EtOH/DMSO) groups. Animals were randomly assigned to treatment arms with approximately equivalent numbers in each group.
KW-2449 stock solution was prepared at 10 mg/ml with DMSO, and Piperine stock solution at 30 mg/ml with EtOH. 20 μl of stock solution were diluted with 1 ml saline for injection. Daily drug treatments or sham injections were performed on both groups between P28 and P56, for at least two weeks, as Mecp2 mutant mice start to show symptoms around P28 and die around P60. Both following tests were performed on both groups of mice before the injections start, and repeated at the end of the injection period. The animals' performance was then compared before and after drug/vehicle injections.
To measure the subjects' nighttime locomotion, a 1-D infrared light-beam frame (ActiMot, TSE-systems, MO) was used. Animals were single-housed in new cages with the same setup as their home cages. The infrared monitor was set up for each cage and the beam crossings was recorded between 17:00 and 9:00 the next morning, where the lights were turned off between 19:00 and 7:00. The average beam crossing frequency during the night (21:00-5:00) was used as the subject's activity score, and the average beam crossing frequency after lights on (7:00-9:00) was used as the subject's day time activity score. The time periods where the mouse is stationary for >5 minutes are discarded to reduce artifact caused by the mouse sleeping. As we look at both day-time and night-time locomotion, a bonferroni correction with repeated comparison number of 2 was applied. All behavioral analyses were performed by experimenters who were blind to the treatment condition.

[4] = system: KCC2 expression (KCC2-2A-luciferase reporter); experiment: KCC2-2A-luciferase reporter compound screening with RTT KCC2 reporter neurons; format: cell-based, human; conditions: MECP2-null RTT human KCC2 reporter neurons; LINCS, SMART, ICCB libraries; Luc/CTG normalized to in-plate DMSO; hit = B score >3
Method in brief: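 MECP2-null RTT human neurons carrying a KCC2-2A-luciferase reporter, differentiated 4 weeks, were treated with library compounds at 10 μM for 1–2 weeks at 37 °C. Lysate luciferase was normalized to CellTiter-Glo ATP per well and expressed as fold change over in-plate DMSO. Hits were called at B score >3.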

[5] = system: KCC2 expression; experiment: Western blot of KCC2 in cultured human RTT neurons; format: cell-based; conditions: Western blot; for KCC2 expression: cultured human RTT neurons
Method in brief: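 Cultured neurons lysed in RIPA buffer (pH 7.6) with sonication; immunoblotted on PVDF with KCC2 antibody (1:2000) overnight at 4° C., HRP secondary.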

Structure (SMILES): O=C(/C=C/C=C/c1ccc2c(c1)OCO2)N1CCCCC1 [Piperine, (2E,4E)-5-(Benzo[d][1,3]dioxol-5-yl)-1-(piperidin-1-yl)penta-2,4-dien-1-one]
- symptoms in mouse models of autism and depression [1]: improved symptoms
- frequency of breathing pauses [2]: significantly reduced the frequency of breathing pauses
- day-time locomotion ([3]; Mecp2 mutant animals, vs EtOH control): significantly increased day-time locomotion
- locomotive activities ([3]; male Mecp2 mutant mice, daily injection, two weeks, vs DMSO- or EtOH-injected control): increased locomotive activities
- B Score [4]: 4.69
- concentration at which treatment significantly increases KCC2 expression ([5]; cultured ESC-derived human RTT neurons): 10 µM
- KCC2 expression [5]: induced KCC2 expression in a dose-dependent manner; also recorded: significant increase in KCC2 expression
- KCC2 expression ([5]; listed as piperine): increase KCC2 expression
